In ChEMBL document CHEMBL3639072, “Heterocyclic derivatives and their use in the treatment of neurological disorders” (2014):

Columns and labels:
Beta-secretase 1 = Beta-secretase 1 (Homo sapiens, UniProt P56817)
Beta-secretase 2 = biological target: T1, Beta-secretase 2 (Homo sapiens, UniProt Q9Y5Z0)
T1 sequence (Q9Y5Z0 whole entry): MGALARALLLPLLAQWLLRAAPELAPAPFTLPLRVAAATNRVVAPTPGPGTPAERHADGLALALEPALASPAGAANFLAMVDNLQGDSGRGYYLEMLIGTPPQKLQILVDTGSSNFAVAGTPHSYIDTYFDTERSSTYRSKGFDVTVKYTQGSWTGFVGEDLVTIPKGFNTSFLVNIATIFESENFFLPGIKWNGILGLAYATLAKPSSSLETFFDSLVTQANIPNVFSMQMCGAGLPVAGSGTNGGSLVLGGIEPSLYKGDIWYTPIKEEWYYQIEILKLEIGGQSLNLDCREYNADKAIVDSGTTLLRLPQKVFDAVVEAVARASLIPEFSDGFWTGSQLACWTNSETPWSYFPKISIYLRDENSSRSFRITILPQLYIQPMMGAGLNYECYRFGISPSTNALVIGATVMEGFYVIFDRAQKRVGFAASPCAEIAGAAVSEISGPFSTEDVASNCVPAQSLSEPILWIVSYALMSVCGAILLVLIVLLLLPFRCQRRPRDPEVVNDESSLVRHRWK

Beta-secretase 1, sequence (P56817 whole entry): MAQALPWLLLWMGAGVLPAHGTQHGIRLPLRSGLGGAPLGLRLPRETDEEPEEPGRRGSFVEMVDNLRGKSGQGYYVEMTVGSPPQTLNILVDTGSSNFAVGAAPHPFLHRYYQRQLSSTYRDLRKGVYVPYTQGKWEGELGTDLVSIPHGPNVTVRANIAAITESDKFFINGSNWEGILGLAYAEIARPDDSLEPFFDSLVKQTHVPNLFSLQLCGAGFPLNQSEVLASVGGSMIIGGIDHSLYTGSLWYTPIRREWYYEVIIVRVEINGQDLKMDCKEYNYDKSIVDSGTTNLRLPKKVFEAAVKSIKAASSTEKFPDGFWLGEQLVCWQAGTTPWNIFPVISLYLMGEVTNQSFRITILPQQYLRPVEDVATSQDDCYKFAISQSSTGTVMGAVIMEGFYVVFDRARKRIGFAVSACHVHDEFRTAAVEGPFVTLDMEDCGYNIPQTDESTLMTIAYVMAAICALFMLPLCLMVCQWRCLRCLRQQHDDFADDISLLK

IC50 (Beta-secretase 1)	IC50 (Beta-secretase 2)	SMILES
200 nM	1000 nM	C[C@@]1(c2nc(NC(=O)c3ncc(OCCCF)nc3N)ccc2F)CO[C@@](C)(C(F)(F)F)C(N)=N1
230 nM	130 nM	Cc1cnc(C(=O)Nc2ccc(F)c([C@]3(C)CO[C@@](C)(C(F)(F)F)C(N)=N3)n2)c(C)n1
